{
  "source": "ChEMBL document CHEMBL1129613",
  "about": "“Design, synthesis, and biological evaluation of ellipticine-estradiol conjugates” (J Med Chem, 1996)",
  "key": {"[1]": {"target": "Estrogen receptor (Rattus norvegicus) (UniProt P06211+Q62986)", "assay": "Relative binding affinity for estrogen receptor", "format": "protein assay"}, "[2]": {"target": "DNA topoisomerase 2-alpha (Homo sapiens, UniProt P11388)", "sequence (P11388 whole entry)": "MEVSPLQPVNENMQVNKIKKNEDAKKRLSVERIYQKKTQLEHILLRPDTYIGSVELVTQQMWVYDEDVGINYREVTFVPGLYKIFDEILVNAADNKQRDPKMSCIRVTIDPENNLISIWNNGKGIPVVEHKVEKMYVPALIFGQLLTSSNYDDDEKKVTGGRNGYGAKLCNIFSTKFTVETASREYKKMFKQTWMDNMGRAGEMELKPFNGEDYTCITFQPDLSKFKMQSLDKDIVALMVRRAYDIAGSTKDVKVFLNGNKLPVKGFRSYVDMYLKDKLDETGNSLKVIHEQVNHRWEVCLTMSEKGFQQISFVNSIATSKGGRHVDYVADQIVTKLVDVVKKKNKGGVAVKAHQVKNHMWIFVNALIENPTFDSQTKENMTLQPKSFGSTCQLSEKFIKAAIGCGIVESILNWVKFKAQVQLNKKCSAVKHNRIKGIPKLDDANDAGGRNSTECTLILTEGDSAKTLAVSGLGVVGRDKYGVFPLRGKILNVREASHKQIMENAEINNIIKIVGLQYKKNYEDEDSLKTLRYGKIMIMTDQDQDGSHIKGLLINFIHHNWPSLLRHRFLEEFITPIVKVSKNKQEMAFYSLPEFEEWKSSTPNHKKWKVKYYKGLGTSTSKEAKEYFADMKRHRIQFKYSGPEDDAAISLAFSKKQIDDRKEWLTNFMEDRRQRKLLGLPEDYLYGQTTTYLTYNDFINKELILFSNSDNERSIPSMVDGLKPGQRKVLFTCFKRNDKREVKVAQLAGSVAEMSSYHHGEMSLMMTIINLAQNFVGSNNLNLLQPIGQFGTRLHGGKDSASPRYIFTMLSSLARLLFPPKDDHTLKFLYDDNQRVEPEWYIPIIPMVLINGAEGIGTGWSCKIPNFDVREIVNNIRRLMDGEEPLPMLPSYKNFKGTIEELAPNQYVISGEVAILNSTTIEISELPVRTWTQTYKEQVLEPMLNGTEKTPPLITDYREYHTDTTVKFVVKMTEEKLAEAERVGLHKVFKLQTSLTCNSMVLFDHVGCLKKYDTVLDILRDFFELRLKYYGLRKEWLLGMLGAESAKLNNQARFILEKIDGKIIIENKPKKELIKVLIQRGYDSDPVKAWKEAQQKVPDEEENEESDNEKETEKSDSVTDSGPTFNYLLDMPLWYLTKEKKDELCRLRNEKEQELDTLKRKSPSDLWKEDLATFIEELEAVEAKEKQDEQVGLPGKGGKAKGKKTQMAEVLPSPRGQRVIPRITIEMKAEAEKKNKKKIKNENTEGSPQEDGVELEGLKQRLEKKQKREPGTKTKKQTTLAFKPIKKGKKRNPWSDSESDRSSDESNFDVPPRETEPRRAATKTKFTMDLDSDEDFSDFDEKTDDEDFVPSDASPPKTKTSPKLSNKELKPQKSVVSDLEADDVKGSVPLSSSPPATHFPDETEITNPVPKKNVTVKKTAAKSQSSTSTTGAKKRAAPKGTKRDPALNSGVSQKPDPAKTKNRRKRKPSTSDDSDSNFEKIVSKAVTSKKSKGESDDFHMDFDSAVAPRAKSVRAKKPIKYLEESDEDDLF", "assay": "Inhibitory activity against topoisomerase II determined in catenation inhibition assay"}, "HCT-116": {"system": "HCT-116", "assay": "Cytotoxic effect on growth inhibition of colon cancer HCT116 cells", "format": "functional", "settings": "Homo sapiens"}, "Hs-578T": {"system": "Hs-578T", "assay": "Cytotoxic effect on growth inhibition of breast cancer HS 578T cells", "format": "functional", "settings": "Homo sapiens"}, "PC-3": {"system": "PC-3", "assay": "Cytotoxic effect on growth inhibition of prostate cancer PC-3 cells", "format": "functional", "settings": "Homo sapiens"}, "U-251": {"system": "U-251", "assay": "Cytotoxic effect on growth inhibition of CNS cancer U251 cells", "format": "functional", "settings": "Homo sapiens"}, "IGROV-1 [3]": {"system": "IGROV-1", "assay": "Cytotoxic effect on growth inhibition of ovarian cancer IGROVI cells", "format": "functional", "settings": "Homo sapiens"}, "MOLT-4 [4]": {"system": "MOLT-4", "assay": "Cytotoxic effect on growth inhibition of leukemia MOLT-4 cells", "format": "functional", "settings": "Homo sapiens"}, "LOX IMVI": {"system": "LOX IMVI", "assay": "Cytotoxic effect on growth inhibition of melanoma LOX IMVI cells", "format": "functional", "settings": "Homo sapiens"}, "MDA-MB-231": {"system": "MDA-MB-231", "assay": "Cytotoxic effect on growth inhibition of breast cancer MDA-MB-231/ATCC cells", "format": "functional", "settings": "Homo sapiens"}, "SN12C": {"system": "SN12C", "assay": "Cytotoxic effect on growth inhibition of renal cancer SN12C cells", "format": "functional", "settings": "Homo sapiens"}, "NCI-H322M [5]": {"system": "NCI-H322M", "assay": "Cytotoxic effect on growth inhibition of nonsmall cell lung cancer NCI-H322M cells", "format": "functional", "settings": "Homo sapiens"}, "MCF7 [6]": {"system": "MCF7", "assay": "Cytotoxic effect of growth inhibition of breast cancer MCF-7/ADR-RES cells", "format": "functional", "settings": "Homo sapiens"}, "MOLT-4 [7]": {"system": "MOLT-4", "assay": "Cytotoxic effect on leukemia MOLT-4 cells", "format": "functional", "settings": "Homo sapiens"}, "MCF7 [8]": {"system": "MCF7", "assay": "Cytotoxic effect on growth inhibition of breast cancer MCF-7 cells", "format": "functional", "settings": "Homo sapiens"}, "NCI-H322M [9]": {"system": "NCI-H322M", "assay": "Cytotoxic effect on nonsmall cell lung cancer NCI-H322M cells", "format": "functional", "settings": "Homo sapiens"}, "IGROV-1 [10]": {"system": "IGROV-1", "assay": "Cytotoxic effect on ovarian cancer IGROVI cells", "format": "functional", "settings": "Homo sapiens"}},
  "data": [
    {"smiles": "CCOC(=O)C[C@]1(O)CC[C@H]2[C@@H]3CCc4cc(O)ccc4[C@H]3CC[C@@]21C", "values": [
      {"measurement": "relative binding affinity (RBA)", "setting": "[1]", "value": 3.66}
    ]},
    {"smiles": "C[C@]12CC[C@@H]3c4ccc(O)cc4CC[C@H]3[C@@H]1CC[C@@]2(O)CC(=O)O", "values": [
      {"measurement": "relative binding affinity (RBA)", "setting": "[1]", "value": 0.039}
    ]},
    {"smiles": "Cc1c2ccncc2c(C)c2c1[nH]c1ccc(C(=O)NCCCCCCNC(=O)C[C@]3(O)CC[C@H]4[C@@H]5CCc6cc(O)ccc6[C@H]5CC[C@@]43C)cc12", "values": [
      {"measurement": "IC50", "setting": "[2]", "value": "> 200", "unit": "µM"},
      {"measurement": "GI50", "setting": "HCT-116", "value": 31.2, "unit": "µM"},
      {"measurement": "GI50", "setting": "Hs-578T", "value": "> 100", "unit": "µM"},
      {"measurement": "GI50", "setting": "PC-3", "value": 74, "unit": "µM"},
      {"measurement": "GI50", "setting": "U-251", "value": 55.9, "unit": "µM"},
      {"measurement": "GI50", "setting": "IGROV-1 [3]", "value": "> 100", "unit": "µM"},
      {"measurement": "GI50", "setting": "MOLT-4 [4]", "value": 38.3, "unit": "µM"},
      {"measurement": "GI50", "setting": "LOX IMVI", "value": 51.4, "unit": "µM"},
      {"measurement": "relative binding affinity (RBA)", "setting": "[1]", "value": 0.303},
      {"measurement": "GI50", "setting": "MDA-MB-231", "value": 34.7, "unit": "µM"},
      {"measurement": "GI50", "setting": "SN12C", "value": "> 100", "unit": "µM"},
      {"measurement": "GI50", "setting": "NCI-H322M [5]", "value": 28, "unit": "µM"},
      {"measurement": "GI50", "setting": "MCF7 [6]", "value": "> 100", "unit": "µM"}
    ]},
    {"smiles": "Cc1c2c(c(C)c3c1[nH]c1ccccc13)CN(C(=O)NCCCCCCNC(=O)C[C@]1(O)CC[C@H]3[C@@H]4CCc5cc(O)ccc5[C@H]4CC[C@@]31C)C=C2", "values": [
      {"measurement": "GI50", "setting": "MOLT-4 [7]", "value": 2.9, "unit": "µM"},
      {"measurement": "IC50", "setting": "[2]", "value": 24.1, "unit": "µM"},
      {"measurement": "GI50", "setting": "MCF7 [8]", "value": 3.39, "unit": "µM"},
      {"measurement": "GI50", "setting": "HCT-116", "value": 3.55, "unit": "µM"},
      {"measurement": "GI50", "setting": "Hs-578T", "value": 16.6, "unit": "µM"},
      {"measurement": "GI50", "setting": "PC-3", "value": 3.51, "unit": "µM"},
      {"measurement": "GI50", "setting": "U-251", "value": 7.64, "unit": "µM"},
      {"measurement": "GI50", "setting": "IGROV-1 [3]", "value": 8.53, "unit": "µM"},
      {"measurement": "GI50", "setting": "LOX IMVI", "value": 7.97, "unit": "µM"},
      {"measurement": "relative binding affinity (RBA)", "setting": "[1]", "value": 0.132},
      {"measurement": "GI50", "setting": "MDA-MB-231", "value": 19.7, "unit": "µM"},
      {"measurement": "GI50", "setting": "SN12C", "value": 9.56, "unit": "µM"},
      {"measurement": "GI50", "setting": "NCI-H322M [9]", "value": 2.68, "unit": "µM"},
      {"measurement": "GI50", "setting": "MCF7 [6]", "value": 9.96, "unit": "µM"}
    ]},
    {"smiles": "C[C@]12CC[C@@H]3c4ccc(O)cc4CC[C@H]3[C@@H]1CC[C@@]2(O)CC(=O)NCCCCCCN", "values": [
      {"measurement": "relative binding affinity (RBA)", "setting": "[1]", "value": 0.041}
    ]},
    {"smiles": "Cc1c2ccncc2c(C)c2c1[nH]c1ccccc12", "note": "[ELLIPTECINE]", "values": [
      {"measurement": "GI50", "setting": "MOLT-4 [7]", "value": 0.38, "unit": "µM"},
      {"measurement": "GI50", "setting": "MCF7 [8]", "value": 0.71, "unit": "µM"},
      {"measurement": "GI50", "setting": "HCT-116", "value": 0.29, "unit": "µM"},
      {"measurement": "GI50", "setting": "U-251", "value": 0.93, "unit": "µM"},
      {"measurement": "GI50", "setting": "IGROV-1 [3]", "value": 0.86, "unit": "µM"},
      {"measurement": "GI50", "setting": "LOX IMVI", "value": 0.56, "unit": "µM"},
      {"measurement": "GI50", "setting": "SN12C", "value": 0.73, "unit": "µM"},
      {"measurement": "GI50", "setting": "NCI-H322M [5]", "value": 0.31, "unit": "µM"},
      {"measurement": "GI50", "setting": "MCF7 [6]", "value": 0.74, "unit": "µM"}
    ]},
    {"smiles": "Cc1c2cnccc2c(C)c2c1c1ccccc1n2CC(=O)NCCCCCCNC(=O)C[C@]1(O)CC[C@H]2[C@@H]3CCc4cc(O)ccc4[C@H]3CC[C@@]21C", "values": [
      {"measurement": "GI50", "setting": "MOLT-4 [7]", "value": 46.3, "unit": "µM"},
      {"measurement": "IC50", "setting": "[2]", "value": "> 200", "unit": "µM"},
      {"measurement": "GI50", "setting": "MCF7 [8]", "value": "> 100", "unit": "µM"},
      {"measurement": "GI50", "setting": "HCT-116", "value": 39.9, "unit": "µM"},
      {"measurement": "GI50", "setting": "Hs-578T", "value": 46.8, "unit": "µM"},
      {"measurement": "GI50", "setting": "PC-3", "value": 57.1, "unit": "µM"},
      {"measurement": "GI50", "setting": "U-251", "value": 72.4, "unit": "µM"},
      {"measurement": "GI50", "setting": "LOX IMVI", "value": 50.9, "unit": "µM"},
      {"measurement": "GI50", "setting": "MDA-MB-231", "value": "> 100", "unit": "µM"},
      {"measurement": "GI50", "setting": "SN12C", "value": "> 100", "unit": "µM"},
      {"measurement": "GI50", "setting": "NCI-H322M [5]", "value": 71.4, "unit": "µM"},
      {"measurement": "GI50", "setting": "MCF7 [6]", "value": "> 100", "unit": "µM"},
      {"measurement": "GI50", "setting": "IGROV-1 [10]", "value": "> 100", "unit": "µM"}
    ]},
    {"smiles": "CC(C)(C)OC(=O)NCCCCCCNC(=O)C[C@]1(O)CC[C@H]2[C@@H]3CCc4cc(O)ccc4[C@H]3CC[C@@]21C", "values": [
      {"measurement": "relative binding affinity (RBA)", "setting": "[1]", "value": 0.056}
    ]}
  ]
}
